According to US20200288710A1, “SUBSTITUTED SULPHONAMIDES FOR CONTROLLING ANIMAL PESTS” (BAYER CROPSCIENCE AKTIENGESELLSCHAFT, priority 2016, published 2020):

Columns and labels:
Assay type in all cases: in vivo
Myzus persicae [1] = experiment: Myzus persicae oral test; details: 120 h, 20 ppm, oral uptake, after 5 days, read-out: efficacy
Summary of the method: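 Compound dissolved in acetone, diluted in water, then mixed 50:150 μl with IPL41 insect medium (33%+15% sugar). Mixed-population green peach aphids feed through a parafilm seal on the solution; mortality scored as % efficacy after 5 days (100% = all killed).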

Myzus persicae [2] = experiment: Myzus persicae spray test (Chinese cabbage leaf discs); details: foliar, 120 h, 500 g/ha, after 5-6 days, read-out: efficacy
Summary of the method: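 Chinese cabbage leaf discs infested with all stages of green peach aphid were sprayed with compound formulated in acetone/DMF and emulsifier-containing water. Efficacy in % was scored after 5-6 days, with 100% meaning all aphids killed and 0% none killed.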

Meloidogyne incognita = Meloidogyne incognita test; details: 336 h, lettuce, after 14 days, read-out: nematicidal efficacy (formation of galls)
Summary of the method: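 Active compound in acetone, diluted with water, added to sand-filled vessels with M. incognita eggs/larvae and lettuce seeds. After 14 days, efficacy scored by root gall formation: 100% = no galls, 0% = galls equal to untreated control.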

Row | Structure (SMILES) | pest or weed control at 20 ppm (Myzus persicae [1]) | pest or weed control at 500 g/ha (Myzus persicae [2]) | pest or weed control at 20 ppm (Meloidogyne incognita)
1 | Cc1[nH]c(-c2ccccc2Cl)nc1C(=O)NS(=O)(=O)c1ccccc1Cl [Example 238] | 100% | 100% | 100%
2 | Cn1cc(C(=O)NS(=O)(=O)c2c(Cl)cccc2Cl)nc1-c1c(F)cccc1F [Example 93] | 100% | 90% | 90%
3 | Cc1ccccc1-c1nc(C(=O)NS(=O)(=O)c2ccccc2C)cn1C [Example 29] | 100% | 100% | 90%
4 | CCn1cc(C(=O)NS(=O)(=O)c2ccccc2Cl)nc1-c1ccccc1Cl [Example 67] | 100% | 90% | 90%
5 | Cc1noc(C)c1S(=O)(=O)NC(=O)c1cn(C)c(-c2c(F)cccc2F)n1 [Example 358] | 100% | 100% | 90%
6 | Cn1cc(C(=O)NS(=O)(=O)c2ccccc2Cl)nc1-c1cccc(F)c1F [Example 512] | 100% | 90% | 90%
7 | Cc1csc(S(=O)(=O)NC(=O)c2cn(C)c(-c3c(F)cccc3F)n2)c1 [Example 350] | 90% | 100% | 90%
8 | Cn1cc(C(=O)NS(=O)(=O)c2c(Cl)cccc2Cl)nc1-c1ncccc1Cl [Example 588] | 100% | 90% | 90%
9 | Cc1ccsc1S(=O)(=O)NC(=O)c1cn(C)c(-c2cccc(Cl)c2Cl)n1 [Example 560] | 100% | 100% | 100%
10 | Cn1cc(C(=O)NS(=O)(=O)c2c(Cl)cccc2Cl)nc1-c1ncccc1F [Example 594] | 100% | 90% | 90%
11 | COc1ccc(Cl)c(S(=O)(=O)NC(=O)c2cn(C)c(-c3ccccc3C)n2)c1 [Example 98] | 100% | 90% | 90%
12 | Cn1cc(C(=O)NS(=O)(=O)c2cscc2Br)nc1-c1c(F)cccc1F [Example 183] | 100% | 100% | 100%
13 | CC(C)S(=O)(=O)NC(=O)c1nc(-c2ccccc2Cl)n(C)c1Cl [Example 206] | 90% | 100% | 100%
14 | Cn1cc(C(=O)NS(=O)(=O)c2sccc2Br)nc1-c1ccccc1Cl [Example 421] | 100% | 100% | 90%
15 | Cn1cc(C(=O)NS(=O)(=O)c2ccccc2Cl)nc1-c1ccccc1Cl [Example 225] | 100% | 100% | 80%
16 | Cn1cc(C(=O)NS(=O)(=O)c2ccccc2Cl)nc1-c1cc(F)ccc1F [Example 515] | 100% | 90% | 90%
17 | Cn1cc(C(=O)NS(=O)(=O)c2cccc(F)c2F)nc1-c1c(F)cccc1F [Example 320] | 100% | 100% | 90%
18 | Cn1cc(C(=O)NS(=O)(=O)c2c(Cl)cc(Cl)cc2Cl)nc1-c1c(F)cccc1F [Example 435] | 100% | 100% | 90%
19 | Cn1cc(C(=O)NS(=O)(=O)c2ccc(Cl)cc2)nc1-c1c(F)cccc1Cl [Example 114] | 100% | 90% | 100%
20 | Cn1cc(C(=O)NS(=O)(=O)c2ccccc2OC(F)(F)F)nc1-c1c(F)cccc1F [Example 118] | 100% | 100% | 90%
21 | COc1cc(C(=O)NS(=O)(=O)c2ccccc2Cl)nn1-c1ccccc1Cl [Example 275] | 100% | 90% | 100%
22 | Cn1cc(C(=O)NS(=O)(=O)Cc2ccccc2Cl)nc1-c1ccccc1Cl [Example 62] | 100% | 90% | 90%

Row | Structure (SMILES) | pest or weed control at 20 ppm (Myzus persicae [1]) | pest or weed control at 500 g/ha (Myzus persicae [2]) | pest or weed control at 20 ppm (Meloidogyne incognita)
23 | CCc1ccsc1S(=O)(=O)NC(=O)c1cn(C)c(-c2c(F)cccc2F)n1 [Example 419] | 100% | 100% | 90%
24 | Cn1cc(C(=O)NS(=O)(=O)c2ccc(C(F)(F)F)cc2Br)nc1-c1c(F)cccc1F [Example 442] | – | 90% | 90%
25 | COc1ccc(Cl)c(S(=O)(=O)NC(=O)c2cn(C)c(-c3ccccc3Cl)n2)c1 [Example 228] | – | 100% | 100%
26 | CCS(=O)(=O)NC(=O)c1cn(C)c(-c2ccccc2Cl)n1 [Example 64] | – | 90% | 90%
27 | CCOc1cccc(CC)c1S(=O)(=O)NC(=O)c1cn(C)c(-c2c(F)cccc2F)n1 [Example 335] | – | 90% | 90%
28 | Cn1cc(C(=O)NS(=O)(=O)c2ccc(Cl)cc2)nc1-c1ccccc1Cl [Example 230] | – | 100% | 100%
29 | Cn1cc(C(=O)NS(=O)(=O)c2ccc(C(F)(F)F)cc2Cl)nc1-c1c(F)cccc1F [Example 441] | – | 90% | 100%
30 | COc1ccc(S(=O)(=O)NC(=O)c2cn(C)c(-c3ccccc3Cl)n2)cc1 [Example 34] | – | 90% | 100%
31 | COc1cccc(C)c1S(=O)(=O)NC(=O)c1cn(C)c(-c2c(F)cccc2F)n1 [Example 365] | – | 100% | 90%
32 | Cc1ccccc1S(=O)(=O)NC(=O)c1cc(C)n(-c2c(F)cccc2F)n1 [Example 139] | – | 90% | 90%
33 | CCn1cc(C(=O)NS(C)(=O)=O)nc1-c1ccccc1Cl [Example 79] | – | 100% | 90%
34 | Cn1cc(C(=O)NS(=O)(=O)c2cc(Cl)sc2Cl)nc1-c1c(F)cccc1F [Example 356] | – | 90% | 90%
35 | Cn1cc(C(=O)NS(=O)(=O)c2cccc(Cl)c2)nc1-c1c(F)cc(F)cc1F [Example 8] | – | 90% | 100%
36 | Cn1cc(C(=O)NS(=O)(=O)c2ccsc2)nc1-c1c(F)cccc1F [Example 357] | – | 90% | 90%
37 | CCc1[nH]c(-c2ccc(F)cc2F)nc1C(=O)NS(=O)(=O)C(C)C [Example 123] | – | 90% | 90%
38 | COc1ccccc1S(=O)(=O)NC(=O)c1nc(-c2c(F)cccc2F)c(C)n1C [Example 310] | – | 90% | 100%
39 | CCOc1ccccc1S(=O)(=O)NC(=O)c1cn(C)c(-c2c(F)cccc2F)n1 [Example 16] | – | 90% | 90%
40 | CC(C)S(=O)(=O)NC(=O)c1cn(C)c(-c2c(F)cccc2Cl)n1 [Example 149] | – | 90% | 90%
41 | Cc1ccccc1S(=O)(=O)NC(=O)c1cn(C)c(-c2c(F)cc(F)cc2F)n1 [Example 6] | – | 100% | 100%
42 | Cc1ccc(S(=O)(=O)NC(=O)c2cn(C)c(-c3c(F)cccc3F)n2)cc1 [Example 175] | – | 90% | 100%
43 | CC(C)S(=O)(=O)NC(=O)c1cn(C)c(-c2ccccc2Cl)n1 [Example 193] | – | 100% | 90%
44 | Cn1cc(C(=O)NS(=O)(=O)c2ccccc2)nc1-c1c(F)cccc1F [Example 48] | – | 90% | 90%
